Test results published in US10588865B2, “Tamper resistant oral opioid agonist formulations” (Purdue Pharma L.P., priority 2000, dated 2020).
Structures can show the parent of a compound that is named as a salt.

Columns and labels:
[1] = tested on: man; conditions: cited from earlier work
[2] = in comparison to a 15 mg dose of hydrocodone
Text: In certain preferred embodiments, the opioid agonist is oxycodone or hydrocodone.

[3] = tested on: methadone-dependent subjects; conditions: immediate-release naltrexone, interim analysis
[4] = tested on: normal subjects; assay: Example 19: effect of naltrexone on subjective and physiological effects of 15 mg hydrocodone; assay type: in vivo
[5] = tested on: morphine-dependent subjects; assay: Example 17: precipitated withdrawal after hydrocodone immediate release tablets with naltrexone
[6] = cited from earlier work
[7] = after oral doses; cited from earlier work
[8] = suggested by clinical data of examples 17, 18 and 19

C=CCN1CC[C@]23c4c5ccc(O)c4O[C@H]2C(=O)CC[C@@]3(O)[C@H]1C5 [naloxone]
block of the effect of 25 mg of heroin ([1]; One mg intravenously): completely block
dose that prevents or promptly reverses the effects of morphine-like opioid agonist ([1]; given intramuscularly or intravenously in man): 0.4 to 0.8 mg
potency after oral administration compared with parenteral administration ([1]; oral, first passage through the liver): significantly lower potency

Meperidine
Calculated Dose (equianalgesic dose) [2]: 135.0 mg

O=C1CC[C@@]2(O)[C@H]3Cc4ccc(O)c5c4[C@@]2(CCN3CC2CC2)[C@H]1O5 [naltrexone]
dose able to elicit the signs and symptoms of withdrawal [3]: 0.5 mg
dose able to antagonize several centrally mediated opioid effects of hydrocodone, including pupillary miosis ([4]; 15 mg hydrocodone): 0.4 mg
bio-available, immediate-release dose that will not affect analgesia to any significant degree [4, 8]: 0.125 mg
prompt release of bio-available drug that will affect analgesia [4, 8]: ≥ 0.25 mg
liking of the agonist ([5]; 1 mg naltrexone dose with hydrocodone immediate release tablets, opioid-dependent subjects): less liking of the agonist relative to the combination with placebo
withdrawal signs ([5]; subjects in example 17 receiving the 0.25-mg): absence of withdrawal signs

O=C1CC[C@@]2(O)[C@H]3Cc4ccc(O)c5c4[C@@]2(CCN3CC2CC2)[C@H]1O5 [hydrochloride salt of naltrexone, Naltrexone HCl]
water solubility [6]: very water-soluble
solubility in water ([6]; hydrochloride salt): about 100 mg/cc

CN1CC[C@]23CCCC[C@H]2[C@H]1Cc1ccc(O)cc13 [Levorphanol]
Calculated Dose (equianalgesic dose) [2]: 1.8 mg

C[C@H]1[C@H]2Cc3ccc(O)cc3[C@]1(C)CCN2CC1CC1 [cyclazocine]
duration of action [7]: ~24 h

CCC(=O)C(CC(C)N(C)C)(c1ccccc1)c1ccccc1 (stereo not drawn) [Methadone]
Calculated Dose (equianalgesic dose) [2]: 9.0 mg

COc1ccc2c3c1OC1C(=O)CC[C@H]4[C@@H](C2)N(C)CC[C@]314 (stereo partly drawn) [Hydrocodone, 4,5-epoxy-3-methoxy-17-methylmorphinan-6-one]
Calculated Dose (equianalgesic dose) [2]: 15.0 mg

COc1ccc2c3c1O[C@H]1C(=O)CC[C@@]4(O)[C@@H](C2)N(C)CC[C@]314 [Oxycodone, 4,5-expoxy-14-hydroxy-3-methoxy-17-methylmorphinan-6-one]
Calculated Dose (equianalgesic dose) [2]: 13.5 mg

COc1ccc2c3c1O[C@H]1[C@@H](O)C=C[C@H]4[C@@H](C2)N(C)CC[C@@]341 [Codeine]
Calculated Dose (equianalgesic dose) [2]: 90.0 mg
